In patent publication US20090062721A1, “IONTOPHORESIS DEVICE AND METHOD OF MANUFACTURING THE SAME” (TTI ELLEBEAU INC., priority 2006, published 2009):
Where a name gives a salt, the structure may show the parent alone.

Assay: pH of aqueous lidocaine hydrochloride solution brought into contact with an activated carbon fiber polarizable electrode
Type: physicochemical
Conditions: after contact with polarizable electrode composed of activated carbon fibers, within an extremely short time period

CCN(CC)CC(=O)Nc1c(C)cccc1C [lidocaine hydrochloride]
pH value of aqueous solution: about 2.5
